Laboratory results as given in patent US9809623B2, “α4β7 peptide monomer and dimer antagonists” (Protagonist Therapeutics, Inc., priority 2014, dated 2017).
Numbered stars: 1 amine (or outer) side, 2 acyl side, 3 side chain; on linkers, the order of the positions; unused ones are H or OH. Bridge positions count the residues as written; N and C are the ends. Square brackets hold non-standard residues; d marks the D form. Peptide text beside a SMILES is read from it. I, II: the chains in the order shown. Phe(4-tBu) = CC(C)(C)c1ccc(C[C@H](N)C(=O)O)cc1; Diglycolyl = O=C(COCC(=O)[*:2])[*:1]; NMeR = CN[C@@H](CCCNC(=N)N)C(=O)O; β3hE = N[C@@H](CCC(=O)O)CC(=O)O; Pen = CC(C)(S)[C@H](N)C(=O)O

Assays:
[1] = Simulated Intestinal Fluid (SIF) Stability Assay; assay type: in vitro ADME, porcine; settings: Table 4-C, t1/2
Method in brief: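 Peptides (22 μM final) incubated at 37 °C in FASSIF (pH 6.5) with 1% porcine pancreatin; aliquots quenched at various times and analyzed by LC-MS/MS against internal standard. Half-life from first-order exponential decay fit of percent remaining.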

rh integrin α4β7 = target: T1, rh integrin α4β7 (Homo sapiens, UniProt P13612+P26010); assay: α4β7-MAdCAM Competition ELISA; assay type: binding; settings: Table 4-B; read-out: ELISA α4β7 IC50
T1 construct: purchased R&D Systems 5397-A30
Method in brief: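 Recombinant human α4β7 was captured on nickel plates at 800 ng/well. Peptide in 3-fold serial dilution (final top 10 μM) competed with MAdCAM-1 (final 10 nM) for 1 h at room temperature in 50 mM Tris pH 7.6, 150 mM NaCl, 1 mM MnCl2 or MgCl2. Bound MAdCAM-1 was detected with anti-human IgG1-HRP/TMB at A450.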

α4β1 = target: T2, α4β1 (Homo sapiens, UniProt P05556+P13612, DEL729-798); assay: α4β1-VCAM Competition ELISA; assay type: binding; settings: Table 4-B; read-out: ELISA_α4β1 IC50
T2 construct: purchased R&D Systems 5668-A4
Method in brief: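 Recombinant α4β1 (60 nM final) competed with serially diluted peptides (top final 100 μM) for VCAM-1 Fc coated at 400 ng/well, in Tris pH 7.6 with 1 mM MnCl2 or MgCl2, for 2 h at 37 °C. Bound integrin was detected with anti-CD49d 9F10 plus HRP anti-mouse IgG, using TMB read at 450 nm.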

T1 sequence (P13612 34-977 limits assumed): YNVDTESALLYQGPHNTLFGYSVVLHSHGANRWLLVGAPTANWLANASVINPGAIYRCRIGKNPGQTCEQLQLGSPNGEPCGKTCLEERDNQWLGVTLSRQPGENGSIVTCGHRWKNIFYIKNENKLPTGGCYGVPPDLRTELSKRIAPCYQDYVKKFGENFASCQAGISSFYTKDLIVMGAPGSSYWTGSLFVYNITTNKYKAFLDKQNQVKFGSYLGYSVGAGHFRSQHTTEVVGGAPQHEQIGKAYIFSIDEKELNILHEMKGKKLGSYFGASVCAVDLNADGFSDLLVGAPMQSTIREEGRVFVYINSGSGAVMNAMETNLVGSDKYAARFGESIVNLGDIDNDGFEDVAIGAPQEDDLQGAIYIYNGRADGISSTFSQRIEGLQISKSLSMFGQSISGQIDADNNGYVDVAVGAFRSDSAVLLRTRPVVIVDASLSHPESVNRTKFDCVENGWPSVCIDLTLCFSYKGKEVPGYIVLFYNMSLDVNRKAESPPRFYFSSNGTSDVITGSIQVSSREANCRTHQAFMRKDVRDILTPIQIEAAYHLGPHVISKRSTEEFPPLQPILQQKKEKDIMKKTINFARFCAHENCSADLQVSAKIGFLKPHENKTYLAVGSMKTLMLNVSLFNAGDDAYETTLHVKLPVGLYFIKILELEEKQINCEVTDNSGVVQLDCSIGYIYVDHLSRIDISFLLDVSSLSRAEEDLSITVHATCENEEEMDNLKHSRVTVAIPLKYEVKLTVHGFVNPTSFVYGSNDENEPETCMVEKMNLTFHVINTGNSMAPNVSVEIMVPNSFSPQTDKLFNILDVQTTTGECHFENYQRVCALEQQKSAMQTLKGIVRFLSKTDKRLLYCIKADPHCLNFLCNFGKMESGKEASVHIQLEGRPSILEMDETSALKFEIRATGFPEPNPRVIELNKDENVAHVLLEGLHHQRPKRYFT
T1 sequence (P26010 20-723 limits assumed): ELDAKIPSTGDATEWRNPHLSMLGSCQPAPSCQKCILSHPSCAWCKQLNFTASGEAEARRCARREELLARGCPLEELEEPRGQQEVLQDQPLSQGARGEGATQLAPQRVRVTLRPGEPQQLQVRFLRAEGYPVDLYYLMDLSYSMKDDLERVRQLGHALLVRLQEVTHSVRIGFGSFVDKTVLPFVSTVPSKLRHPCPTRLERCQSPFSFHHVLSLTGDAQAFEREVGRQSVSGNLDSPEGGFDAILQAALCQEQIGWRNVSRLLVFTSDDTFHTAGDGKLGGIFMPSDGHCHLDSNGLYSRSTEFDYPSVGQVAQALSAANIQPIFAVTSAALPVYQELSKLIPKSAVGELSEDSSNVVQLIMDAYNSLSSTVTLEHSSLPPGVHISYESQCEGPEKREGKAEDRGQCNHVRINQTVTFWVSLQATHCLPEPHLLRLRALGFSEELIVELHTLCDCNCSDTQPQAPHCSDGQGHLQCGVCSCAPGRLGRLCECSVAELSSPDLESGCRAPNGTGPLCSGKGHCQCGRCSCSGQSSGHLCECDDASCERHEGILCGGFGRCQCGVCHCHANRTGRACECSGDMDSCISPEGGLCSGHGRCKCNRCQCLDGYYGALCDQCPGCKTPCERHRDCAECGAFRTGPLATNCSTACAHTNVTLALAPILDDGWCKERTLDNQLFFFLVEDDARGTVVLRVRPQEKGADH
T2 sequence (P13612 34-977 limits assumed, stated change not applied): as the sequence (P13612 34-977 limits assumed) above
T2 sequence (P05556 21-728 limits assumed, stated change not applied): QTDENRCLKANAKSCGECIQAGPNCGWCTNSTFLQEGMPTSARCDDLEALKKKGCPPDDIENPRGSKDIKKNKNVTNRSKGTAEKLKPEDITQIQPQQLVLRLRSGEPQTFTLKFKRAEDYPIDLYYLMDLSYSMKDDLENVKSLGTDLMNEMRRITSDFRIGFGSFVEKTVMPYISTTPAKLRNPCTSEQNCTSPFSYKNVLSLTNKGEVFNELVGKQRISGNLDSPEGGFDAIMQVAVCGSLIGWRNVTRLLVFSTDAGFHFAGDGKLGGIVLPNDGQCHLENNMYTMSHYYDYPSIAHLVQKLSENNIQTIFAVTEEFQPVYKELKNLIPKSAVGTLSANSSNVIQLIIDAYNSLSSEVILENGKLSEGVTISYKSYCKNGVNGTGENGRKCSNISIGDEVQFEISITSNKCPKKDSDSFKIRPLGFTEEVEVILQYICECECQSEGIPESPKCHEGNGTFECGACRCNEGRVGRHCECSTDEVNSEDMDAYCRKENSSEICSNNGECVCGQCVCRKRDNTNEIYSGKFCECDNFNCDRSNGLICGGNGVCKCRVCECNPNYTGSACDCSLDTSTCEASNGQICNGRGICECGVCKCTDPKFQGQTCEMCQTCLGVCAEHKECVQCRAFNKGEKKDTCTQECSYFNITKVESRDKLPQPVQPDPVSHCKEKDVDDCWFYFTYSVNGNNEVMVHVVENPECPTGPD

With `CC(=O)N[C@@H]1C(=O)N(C)[C@@H](CCCNC(=N)N)C(=O)N[C@@H](CO)C(=O)N[C@@H](CC(=O)O)C(=O)N[C@@H]([C@@H](C)O)C(=O)N[C@@H](CC(C)C)C(=O)N[C@H](C(=O)N[C@@H](Cc2ccc(C(C)(C)C)cc2)C(=O)N[C@@H](CCC(=O)O)CC(=O)N[C@H](CCCCNC(=O)COCC(=O)NCCCC[C@@H](NC(=O)C[C@H](CCC(=O)O)NC(=O)[C@H](Cc2ccc(C(C)(C)C)cc2)NC(=O)[C@H]2NC(=O)[C@H](CC(C)C)NC(=O)[C@H]([C@@H](C)O)NC(=O)[C@H](CC(=O)O)NC(=O)[C@H](CO)NC(=O)[C@H](CCCNC(=N)N)N(C)C(=O)[C@@H](NC(C)=O)C(C)(C)SSC2(C)C)C(N)=O)C(N)=O)C(C)(C)SSC1(C)C` [compound 218, [Ac-Pen-(N-Me-Arg)-Ser-Asp-Thr-Leu-Pen-Phe(4-tBu)-(β-homoGlu)-(D-Lys)-NH2]2-DIG] (I: Ac-[Pen][NMeR]SDTL[Pen][Phe(4-tBu)][β3hE][dK]-NH2 / II: Ac-[Pen][NMeR]SDTL[Pen][Phe(4-tBu)][β3hE][dK]-NH2; disulfide I:1-I:7, II:1-II:7; linker I:10-II:10 via Diglycolyl) the “SIF (porcine), printed in hr in the cell” value [1] was 11 h, the IC50 (rh integrin α4β7) was 2.8 nM and the IC50 (α4β1) was 490 nM.
